# Test results reported in patent publication US10464977B2 (University of Maryland, Baltimore, priority 2016, dated 2019).
# Residues, ends and D or L forms follow the SMILES beside them. No end group written: not given here.
# Experiments:
# Sap2 [1] = assay: 6.25 μg mL^−1 Sap2 in 1 mM NaPB; settings: C. albicans, 37° C., up to 2 h
# Sap2 [2] = biological target: T1, Sap2 (Candida albicans, UniProt P0DJ06); settings: 6.25 μg mL^−1 Sap2
# Method: (§1) The cleavage sites of the Saps and the abundance of the fragments produced by cleavage were determined using mass spectrometry. […] The binding solution was 0.1% formic acid, and the releasing solution was 0.1% formic acid/60% acetonitrile (ACN). To ensure equal flow-through volume of each sample, 18 μL of desalted sample was aliquoted and 1 μL of the four-amino acid peptide MRFA at 0.1 mg mL^−1 was added. Samples were manually loaded through loop injection at 25 μL min^−1 with 40% ACN/0.1% formic acid. Mass spectra were acquired with a Thermo Scientific Orbitrap Fusion Lumos Tribrid mass spectrometer with data-dependent analysis at a 5 s cycle time. Manufacturer recommended source parameters for a flow rate of 25 μL min^−1 were applied. Full scan mass spectra of m z^−1 350-1550 were acquired in the orbitrap at R=120000 (m z^−1 200) with fluoranthene ion as the internal calibrant. CID and ETD fragments of the most intense ions (z>1) were recorded with the orbitrap at R=60000 (m z^−1 200). Dynamic exclusion was set at 30 s.
# (§2) The molecular weights of the peptides and their fragments were calculated from full scan MS spectra using the XTract program in the XCalibur software (Thermo Scientific). MS/MS spectra from ETD and CID fragmentation were processed using Proteome Discoverer (V2.1) with Prosight PD node to identify peptides and their degradation products. […] Intensities of identified peptides and their degradation products relative to the internal standard MRFA were obtained from the deconvoluted full scan mass spectra.
# (§3) After incubation of the peptides with each Sap, the four-amino-acid peptide MRFA was added as an internal standard, and samples were directly injected into the mass spectrometer.
# Sap9 [3] = biological target: T2, Sap9 (Candida albicans, UniProt Q59SU1); settings: 3.13 μg mL^−1 Sap9
# Method: as §1, §2, §3
# Sap2 [4] = biological target: T1, Sap2; assay: in vitro; settings: for degradation by Sap2 (in words): 6.25 μg mL^−1 Sap2, 150 μg mL^−1 peptide; for degradation by Sap2 (in words) / intact peptide remaining after incubation with higher Sap2 concentration: 2 h, 37° C.; for intact peptide remaining after incubation with higher Sap2 concentration: 18 μg mL^−1 Sap2, 150 μg mL^−1 peptide
# Method: (§4) Experiments were done in 1 mM NaPB. The mixtures were incubated at 37° C. for 2 h, and NaPB with no Sap was used as a control. After the incubation, the samples were mixed with tricine sample buffer (without Coomassie Blue G-250, except in control samples) containing β-mercaptoethanol and boiled for 5 min at 100° C. to inactivate the proteases. The degraded and non-degraded peptides were separated by gel electrophoresis in 10-20% Tris-tricine gels (Bio-Rad), and the gels were then fixed in a 10% acetic acid/40% methanol/50% water mixture for 30 min. The fixed gels were stained with Bio-Safe Coomassie stain (Bio-Rad) for 1 h and washed with fresh water three times, once overnight and then twice for at least 2 h each time. The gels were imaged on a Chemidoc imager (Bio-Rad), and densitometric analysis was done with Image Lab software (Bio-Rad). […] Three replicates of the assay were done.
# (§5) To measure the antifungal activity of the peptides following degradation by the Saps, the antifungal activity assay was performed as described above, except the peptides were first exposed to Saps. The peptide fragments were prepared by incubating each peptide (150 μg mL^−1) with 6.25 μg mL^−1 Sap9 or 18 μg mL^−1 Sap2 for 2 h at 37° C. The enzymes were then inactivated by heating at 100° C. for 5 min. As controls, each peptide was also incubated with only NaPB buffer. Samples were then stored at −20° C. until use in the antifungal activity assay.
# (§6) The intact peptide was then separated from the degradation products using gel electrophoresis and quantified the level of degradation using densitometric analysis of Coomassie-stained gels.
# (§7) To amplify differences in antifungal activity due to degradation by the Saps, the concentrations of the Saps was increased by at least two-fold compared to the concentrations used for the gel electrophoresis data in FIGS. 1A-1D (to 6.25 μg mL^−1 for Sap9 and 18 μg mL^−1 for Sap2).
# Sap9 [5] = biological target: T2, Sap9; assay: in vitro; settings: Candida albicans, isolated enzyme
# Method: as §4, §5, §6, §7
# Sap9 [6] = assay: 3.13 μg mL^−1 Sap9 in 1 mM NaPB; settings: C. albicans, 37° C., up to 2 h
# Sap2 [7] = assay: 18 μg mL^−1 Sap2 in 1 mM sodium phosphate buffer (NaPB); settings: C. albicans, 37° C., up to 2 h
# [8] = tested on: C. albicans cells (ATCC 90028); assay: Degradation of peptides by whole C. albicans cells, gel densitometry; format: in vitro ADME; settings: 1×10^9 cells mL^−1, 150 μg mL^−1 peptide, 2 h, 37° C., 100 mM NaPB
# Method: For degradation with C. albicans, a single colony of the ATCC 90028 strain (American Type Culture Collection) was used to inoculate YPD. The culture was grown overnight, subcultured, and grown to an optical density of 1-1.2 at OD600. All incubations were done at 30° C. The cells were washed three times in 100 mM NaPB and diluted to 2×10^9 cells mL^−1. Equal volumes of cells and peptides were mixed and incubated for 2 h at 37° C. The cells were removed by centrifugation, and the supernatants were mixed with tricine sample buffer and boiled for 10 min. The samples were then run on gels and analyzed as described above for degradation by the Saps. Three biological replicates were performed.
# After observing the effect of residue modifications on the cleavage of Hst-5 by the purified recombinant Saps, whether incubation of the peptides with whole C. albicans cells expressing Saps (rather than Saps produced recombinantly) would yield similar results was evaluated. Hst-5 and the synthetic peptides were incubated with C. albicans cells for 2 h at 37° C. in 100 mM NaPB. The high ionic strength of this buffer prevents internalization of the peptides by C. albicans (4) allowing analysis of degradation of the peptides without the confounding effects of peptide internalization, which would reduce the amount of peptide in the reaction buffer.
# T2 sequence (Q59SU1 18-520): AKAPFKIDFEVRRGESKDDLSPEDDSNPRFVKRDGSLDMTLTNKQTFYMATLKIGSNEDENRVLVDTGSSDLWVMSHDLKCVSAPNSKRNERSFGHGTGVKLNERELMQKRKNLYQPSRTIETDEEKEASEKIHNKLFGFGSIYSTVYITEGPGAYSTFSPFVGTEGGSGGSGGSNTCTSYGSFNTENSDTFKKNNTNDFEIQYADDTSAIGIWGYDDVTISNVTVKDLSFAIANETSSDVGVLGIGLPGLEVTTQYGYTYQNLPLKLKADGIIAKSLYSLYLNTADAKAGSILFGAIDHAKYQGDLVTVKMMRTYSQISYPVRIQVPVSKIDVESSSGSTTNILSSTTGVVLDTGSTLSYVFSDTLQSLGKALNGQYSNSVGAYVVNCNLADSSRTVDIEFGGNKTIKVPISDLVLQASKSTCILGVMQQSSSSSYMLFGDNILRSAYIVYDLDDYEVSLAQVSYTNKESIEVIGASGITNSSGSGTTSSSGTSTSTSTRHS
# T1 sequence (P0DJ06 57-398): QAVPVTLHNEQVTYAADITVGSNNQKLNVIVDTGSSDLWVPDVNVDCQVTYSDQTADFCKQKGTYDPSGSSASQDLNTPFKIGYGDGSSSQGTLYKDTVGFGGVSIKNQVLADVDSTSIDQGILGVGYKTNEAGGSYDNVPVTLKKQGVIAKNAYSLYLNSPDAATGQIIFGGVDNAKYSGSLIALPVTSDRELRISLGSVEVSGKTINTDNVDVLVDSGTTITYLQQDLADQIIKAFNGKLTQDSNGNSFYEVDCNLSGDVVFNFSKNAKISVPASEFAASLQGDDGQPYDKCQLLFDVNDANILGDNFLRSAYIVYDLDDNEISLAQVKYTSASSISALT
compound,measurement,setting,value
DSHAKRHHGYKRKFHELHHSHRGY,cleaved bond,Sap2 [1],L17-H18
"C[C@H](NC(=O)[C@H](Cc1cnc[nH]1)NC(=O)[C@H](CO)NC(=O)[C@@H](N)CC(=O)O)C(=O)N[C@@H](CCCCN)C(=O)N[C@@H](CCCNC(=N)N)C(=O)N[C@@H](Cc1cnc[nH]1)C(=O)N[C@@H](Cc1cnc[nH]1)C(=O)NCC(=O)N[C@@H](Cc1ccc(O)cc1)C(=O)N[C@@H](CCCCN)C(=O)N[C@@H](CCCNC(=N)N)C(=O)N[C@@H](CCCCN)C(=O)N[C@@H](Cc1ccccc1)C(=O)N[C@@H](Cc1cnc[nH]1)C(=O)N[C@@H](CCC(=O)O)C(=O)N[C@@H](CCCCN)C(=O)N[C@@H](Cc1cnc[nH]1)C(=O)N[C@@H](Cc1cnc[nH]1)C(=O)N[C@@H](CO)C(=O)N[C@@H](Cc1cnc[nH]1)C(=O)N[C@@H](CCCNC(=N)N)C(=O)NCC(=O)N[C@@H](Cc1ccc(O)cc1)C(=O)O [Hst-5, reference compound]","mass spectrometry signal of intact peptide versus fragments, Sap2",Sap2 [2],intact peptide having the highest signal
same,"mass spectrometry signal of intact peptide versus fragments, Sap9",Sap9 [3],signal for the degradation fragment containing amino acids 1-17 of Hst-5 was higher than the intact peptide
same,"remaining at 2 h, 150 μg mL^−1","Sap2 [4]; Candida albicans, isolated enzyme",61%
same,"remaining at 2 h, 150 μg mL^−1",Sap9 [5],47%
DSHAKRHHGYRRKFHERHHSHRGY,not cleaved,Sap2 [1],no observable degradation
same,not cleaved,Sap9 [6],no observable degradation
CC(C)C[C@H](NC(=O)[C@H](CCC(=O)O)NC(=O)[C@H](Cc1c[nH]cn1)NC(=O)[C@H](Cc1ccccc1)NC(=O)[C@H](CCCCN)NC(=O)[C@H](CCCNC(=N)N)NC(=O)[C@H](CCCCN)NC(=O)[C@H](Cc1ccc(O)cc1)NC(=O)CNC(=O)[C@H](Cc1c[nH]cn1)NC(=O)[C@H](Cc1c[nH]cn1)NC(=O)[C@H](CCCNC(=N)N)NC(=O)[C@H](CCCCN)NC(=O)[C@H](C)NC(=O)[C@H](Cc1c[nH]cn1)NC(=O)[C@H](CO)NC(=O)[C@@H](N)CC(=O)O)C(=O)N[C@@H](Cc1c[nH]cn1)C(=O)N[C@@H](Cc1c[nH]cn1)C(=O)N[C@@H](CO)C(=O)N[C@@H](Cc1c[nH]cn1)C(=O)N[C@@H](CCCNC(=N)N)C(=O)NCC(=O)N[C@@H](Cc1ccc(O)cc1)C(=O)O [Peptide K17L] (H-DSHAKRHHGYKRKFHELHHSHRGY-OH; N-terminus and C-terminus assumed),cleavage at the C-terminal side of K17 by Sap2 (mass spectrometry),Sap2 [2],still cleaved
same,cleavage on the C-terminal side of K17 by Sap9 (mass spectrometry),Sap9 [3],neither K17R nor K17L showed significant cleavage at this site
same,"mass spectrometry signal of intact peptide versus fragments, Sap9",Sap9 [3],the most intense signal came from the intact peptide
same,degradation by Sap2 (in words),Sap2 [4],No detectable degradation
same,intact peptide remaining after incubation with higher Sap2 concentration,Sap2 [4],over 70%
same,"remaining at 2 h, 150 μg mL^−1",Sap9 [5],77%
DSHAKRHHGYKRKFHERHHSHRGY,not cleaved,Sap2 [7],over 90% remaining
same,cleaved bond,Sap2 [1],R17-H18
C[C@H](NC(=O)[C@H](Cc1c[nH]cn1)NC(=O)[C@H](CO)NC(=O)[C@@H](N)CC(=O)O)C(=O)N[C@@H](CCCCN)C(=O)N[C@@H](CCCNC(=N)N)C(=O)N[C@@H](Cc1c[nH]cn1)C(=O)N[C@@H](Cc1c[nH]cn1)C(=O)NCC(=O)N[C@@H](Cc1ccc(O)cc1)C(=O)N[C@@H](CCCCN)C(=O)N[C@@H](CCCNC(=N)N)C(=O)N[C@@H](CCCCN)C(=O)N[C@@H](Cc1ccccc1)C(=O)N[C@@H](Cc1c[nH]cn1)C(=O)N[C@@H](CCC(=O)O)C(=O)N[C@@H](CCCNC(=N)N)C(=O)N[C@@H](Cc1c[nH]cn1)C(=O)N[C@@H](Cc1c[nH]cn1)C(=O)N[C@@H](CO)C(=O)N[C@@H](Cc1c[nH]cn1)C(=O)N[C@@H](CCCNC(=N)N)C(=O)NCC(=O)N[C@@H](Cc1ccc(O)cc1)C(=O)O [Peptide K17R] (H-DSHAKRHHGYKRKFHERHHSHRGY-OH; N-terminus and C-terminus assumed),cleavage at the C-terminal side of K17 by Sap2 (mass spectrometry),Sap2 [2],still cleaved
same,cleavage on the C-terminal side of K17 by Sap9 (mass spectrometry),Sap9 [3],neither K17R nor K17L showed significant cleavage at this site
same,"mass spectrometry signal of intact peptide versus fragments, Sap9",Sap9 [3],the most intense signal came from the intact peptide
same,degradation by Sap2 (in words),Sap2 [4],No detectable degradation
same,intact peptide remaining after incubation with higher Sap2 concentration,Sap2 [4],over 90%
same,"remaining at 2 h, 150 μg mL^−1",Sap9 [5],82%
CC(C)C[C@H](NC(=O)[C@H](CCCNC(=N)N)NC(=O)[C@H](CCCCN)NC(=O)[C@H](Cc1ccc(O)cc1)NC(=O)CNC(=O)[C@H](Cc1c[nH]cn1)NC(=O)[C@H](Cc1c[nH]cn1)NC(=O)[C@H](CCCNC(=N)N)NC(=O)[C@H](CCCCN)NC(=O)[C@H](C)NC(=O)[C@H](Cc1c[nH]cn1)NC(=O)[C@H](CO)NC(=O)[C@@H](N)CC(=O)O)C(=O)N[C@@H](Cc1ccccc1)C(=O)N[C@@H](Cc1c[nH]cn1)C(=O)N[C@@H](CCC(=O)O)C(=O)N[C@@H](CCCCN)C(=O)N[C@@H](Cc1c[nH]cn1)C(=O)N[C@@H](Cc1c[nH]cn1)C(=O)N[C@@H](CO)C(=O)N[C@@H](Cc1c[nH]cn1)C(=O)N[C@@H](CCCNC(=N)N)C(=O)NCC(=O)N[C@@H](Cc1ccc(O)cc1)C(=O)O [Peptide K13L] (H-DSHAKRHHGYKRLFHEKHHSHRGY-OH; N-terminus and C-terminus assumed),"mass spectrometry signal of intact peptide versus fragments, Sap9",Sap9 [3],apparent shift in cleavage site preference compared to the parent Hst-5
same,degradation by C. albicans cells (in words),[8],increase in degradation compared to the parent Hst-5
